The test system of this experiment is phenyl-para-quinone induced writhing. The experiment can be described thus: phenyl-para-quinone (PQW) writhing assay for analgesia. As to conditions: Mus musculus, sc; 50% inhibition of writhing, s.c., mice; read-out: ED50 (subcutaneous dose at which 50% of the phenyl-para-quinone induced writhing is inhibited). In kind it is in vivo. An excerpt: The compounds of the present invention are also useful as analgesic agents due to their ability to alleviate pain in mammals. […] Exptl. Biol. Med., 95, 729 (1957)]. Presented in Table 2 is the analgesic effect of some of the compounds of the invention expressed as either the subcutaneous dose at which 50% of the phenyl-para-quinone induced writhing is inhibited in the animals, i.e., the ED50 value, or as the % decrease in writhing at a give dose.

The values below come from US5030733A, “Hydroxy-, alkoxy- and benzyloxy-substituted phospholipids” (Hoechst-Roussel Pharmaceticals Incorporated, priority 1989, dated 1991).

Structures are written as SMILES.

What is called ED50 is the dose at which the effect has come halfway, by size or by number of responders. In the case of `CCC(=O)O[C@](Cc1ccccc1)(c1ccccc1)[C@H](C)CN(C)C` [Propoxyphene], the ED50 is 3.9 mg/kg.
